Species on record: Rattus norvegicus
Assay: Open TG-GATES - Regimen: Daily Repeat
Format: toxicity, organism-based, Sprague-Dawley
Design: regimen Daily Repeat, gender Male, age 6 weeks
Conditions: in vivo, po, 30 mg/kg, route gavage, dose level Middle; for APTT / Bas / Eos / Fbg / Hb / Ht / Lym / MCH / MCHC / MCV / Mono / Neu / PT / Plat / RBC / Ret / WBC: tissue Blood; for KIDNEY_L / KIDNEY_R / KIDNEY_TOTAL: tissue Kidney; for LIVER: tissue Liver; for A/G / ALP / ALT / AST / BUN / CRE / Ca / Cl / DBIL / GLC / IP / K / LDH / Na / PL / RALB / TBIL / TC / TG / TP / gamma-GTP: tissue Plasma

## Nc1ccc(Cc2ccc(N)cc2)cc1
72 h, time 3 day
  TERMINAL_BW: 240.8 g
  APTT: 13.8 s
  Bas: 0%
  Eos: 1%
  Fbg: 295.8 mg/dL
  Hb: 13.3 g/dL
  Ht: 39.3%
  Lym: 72.6%
  MCH: 20.5 pg
  MCHC: 33.8%
  MCV: 60.6 fL
  Mono: 2.6%
  Neu: 23%
  PT: 11.4 s
  Plat: 133.5 x10_4/uL
  RBC: 649.4 x10_4/ul
  Ret: 5.6%
  WBC: 112 x10_2/uL
  KIDNEY_L: 1 g
  KIDNEY_R: 1 g
  KIDNEY_TOTAL: 2 g
  LIVER: 12.3 g
  A/G: 0.8
  ALP: 1785.8 IU/L
  ALT: 59.4 IU/L
  AST: 104 IU/L
  BUN: 14.6 mg/dL
  CRE: 0.2 mg/dL
  Ca: 11.1 mg/dL
  Cl: 105.6 meq/L
  DBIL: 0.022 mg/dL
  GLC: 159.2 mg/dL
  IP: 7.5 mg/dL
  K: 4.2 meq/L
  LDH: 89.2 IU/L
  Na: 143.4 meq/L
  PL: 160 mg/dL
  RALB: 2.6 g/dL
  TBIL: 0.05 mg/dL
  TC: 95.8 mg/dL
  TG: 83.4 mg/dL
  TP: 5.8 g/dL
  gamma-GTP: 2 IU/L
[…], time 7 day
  TERMINAL_BW: 277.9 g
  APTT: 14.2 s
  Bas: 0.2%
  Eos: 0.8%
  Fbg: 286 mg/dL
  Hb: 13.7 g/dL
  Ht: 39.1%
  Lym: 71.6%
  MCH: 20.6 pg
  MCHC: 34.9%
  MCV: 59.1 fL
  Mono: 2.8%
  Neu: 23.8%
  PT: 11.4 s
  Plat: 147.7 x10_4/uL
  RBC: 663 x10_4/ul
  Ret: 5.2%
  WBC: 101.6 x10_2/uL
  KIDNEY_L: 1.1 g
  KIDNEY_R: 1.1 g
  KIDNEY_TOTAL: 2.2 g
  LIVER: 13.2 g
  A/G: 0.8
  ALP: 1631.6 IU/L
  ALT: 37 IU/L
  AST: 68 IU/L
  BUN: 17.4 mg/dL
  CRE: 0.2 mg/dL
  Ca: 11.2 mg/dL
  Cl: 105.2 meq/L
  DBIL: 0.026 mg/dL
  GLC: 173.6 mg/dL
  IP: 7.4 mg/dL
  K: 4.1 meq/L
  LDH: 85.2 IU/L
  Na: 143 meq/L
  PL: 145 mg/dL
  RALB: 2.7 g/dL
  TBIL: 0.064 mg/dL
  TC: 81 mg/dL
  TG: 125.2 mg/dL
  TP: 6 g/dL
  gamma-GTP: 1.2 IU/L
[…], time 14 day
  TERMINAL_BW: 333.9 g
  APTT: 15.3 s
  Bas: 0.2%
  Eos: 0.6%
  Fbg: 273.6 mg/dL
  Hb: 13.7 g/dL
  Ht: 39.6%
  Lym: 75%
  MCH: 20.1 pg
  MCHC: 34.7%
  MCV: 57.9 fL
  Mono: 2.2%
  Neu: 21.2%
  PT: 11.8 s
  Plat: 141.9 x10_4/uL
  RBC: 684.8 x10_4/ul
  Ret: 4.6%
  WBC: 128.9 x10_2/uL
  KIDNEY_L: 1.2 g
  KIDNEY_R: 1.2 g
  KIDNEY_TOTAL: 2.4 g
  LIVER: 15.2 g
  A/G: 0.8
  ALP: 1617.2 IU/L
  ALT: 38.4 IU/L
  AST: 66.4 IU/L
  BUN: 15.6 mg/dL
  CRE: 0.2 mg/dL
  Ca: 10.9 mg/dL
  Cl: 105 meq/L
  DBIL: 0.016 mg/dL
  GLC: 190.6 mg/dL
  IP: 6.8 mg/dL
  K: 3.7 meq/L
  LDH: 71.8 IU/L
  Na: 143.2 meq/L
  PL: 141.2 mg/dL
  RALB: 2.6 g/dL
  TBIL: 0.054 mg/dL
  TC: 72.8 mg/dL
  TG: 96.8 mg/dL
  TP: 6.1 g/dL
  gamma-GTP: 1 IU/L
[…], time 28 day
  TERMINAL_BW: 429.1 g
  APTT: 17.1 s
  Bas: 0.8%
  Eos: 1%
  Fbg: 273.4 mg/dL
  Hb: 14.9 g/dL
  Ht: 41.7%
  Lym: 76.8%
  MCH: 19.8 pg
  MCHC: 35.7%
  MCV: 55.5 fL
  Mono: 2.2%
  Neu: 19%
  PT: 11.9 s
  Plat: 109.8 x10_4/uL
  RBC: 752 x10_4/ul
  Ret: 2.7%
  WBC: 131.8 x10_2/uL
  KIDNEY_L: 1.4 g
  KIDNEY_R: 1.4 g
  KIDNEY_TOTAL: 2.9 g
  LIVER: 19.2 g
  A/G: 0.7
  ALP: 1167.6 IU/L
  ALT: 38.6 IU/L
  AST: 66.2 IU/L
  BUN: 15.4 mg/dL
  CRE: 0.2 mg/dL
  Ca: 11.1 mg/dL
  Cl: 104.8 meq/L
  DBIL: 0.024 mg/dL
  GLC: 178.6 mg/dL
  IP: 6.1 mg/dL
  K: 4 meq/L
  LDH: 74.6 IU/L
  Na: 145.2 meq/L
  PL: 141.6 mg/dL
  RALB: 2.6 g/dL
  TBIL: 0.062 mg/dL
  TC: 73.6 mg/dL
  TG: 110.4 mg/dL
  TP: 6.4 g/dL
  gamma-GTP: 1 IU/L
